What was measured:
[1] = biological target: T1, Serine/threonine-protein kinase Chk1 (Homo sapiens) (UniProt O14757); experiment: Selectivity interaction (Ambit KINOMEscan and KiNATiv profiling in Jurkat cells) EUB0000090b CHEK1; type: cell-based; conditions: at 1 µM
T1 sequence (whole entry): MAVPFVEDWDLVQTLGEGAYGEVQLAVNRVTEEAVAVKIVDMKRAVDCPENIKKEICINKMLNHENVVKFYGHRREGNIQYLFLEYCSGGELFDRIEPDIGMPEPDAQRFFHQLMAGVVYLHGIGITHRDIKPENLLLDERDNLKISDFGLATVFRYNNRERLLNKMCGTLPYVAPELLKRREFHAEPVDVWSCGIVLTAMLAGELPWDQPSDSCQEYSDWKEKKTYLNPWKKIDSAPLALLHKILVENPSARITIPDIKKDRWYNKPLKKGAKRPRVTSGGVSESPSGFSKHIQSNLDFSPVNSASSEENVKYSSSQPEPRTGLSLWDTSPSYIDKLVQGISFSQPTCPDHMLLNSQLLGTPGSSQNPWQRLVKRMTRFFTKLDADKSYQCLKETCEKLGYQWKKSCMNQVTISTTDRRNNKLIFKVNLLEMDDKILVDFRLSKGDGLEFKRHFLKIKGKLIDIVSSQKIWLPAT

Aurora kinase B = Aurora kinase B (Homo sapiens, UniProt Q96GD4); experiment: Selectivity interaction (Ambit KINOMEscan and KiNATiv profiling in Jurkat cells) EUB0000090b AURKB; type: cell-based; conditions: at 1 µM
[2] = tested on: Serine/threonine-protein kinase B-raf (Homo sapiens), P15056 [V600E]; experiment: (§1) Selectivity interaction (Ambit KINOMEscan and KiNATiv profiling in Jurkat cells) EUB0000090b BRAF; type: cell-based; conditions: at 1 µM
Chain of Serine/threonine-protein kinase B-raf (Homo sapiens), P15056 [V600E] (P15056 whole entry V600E): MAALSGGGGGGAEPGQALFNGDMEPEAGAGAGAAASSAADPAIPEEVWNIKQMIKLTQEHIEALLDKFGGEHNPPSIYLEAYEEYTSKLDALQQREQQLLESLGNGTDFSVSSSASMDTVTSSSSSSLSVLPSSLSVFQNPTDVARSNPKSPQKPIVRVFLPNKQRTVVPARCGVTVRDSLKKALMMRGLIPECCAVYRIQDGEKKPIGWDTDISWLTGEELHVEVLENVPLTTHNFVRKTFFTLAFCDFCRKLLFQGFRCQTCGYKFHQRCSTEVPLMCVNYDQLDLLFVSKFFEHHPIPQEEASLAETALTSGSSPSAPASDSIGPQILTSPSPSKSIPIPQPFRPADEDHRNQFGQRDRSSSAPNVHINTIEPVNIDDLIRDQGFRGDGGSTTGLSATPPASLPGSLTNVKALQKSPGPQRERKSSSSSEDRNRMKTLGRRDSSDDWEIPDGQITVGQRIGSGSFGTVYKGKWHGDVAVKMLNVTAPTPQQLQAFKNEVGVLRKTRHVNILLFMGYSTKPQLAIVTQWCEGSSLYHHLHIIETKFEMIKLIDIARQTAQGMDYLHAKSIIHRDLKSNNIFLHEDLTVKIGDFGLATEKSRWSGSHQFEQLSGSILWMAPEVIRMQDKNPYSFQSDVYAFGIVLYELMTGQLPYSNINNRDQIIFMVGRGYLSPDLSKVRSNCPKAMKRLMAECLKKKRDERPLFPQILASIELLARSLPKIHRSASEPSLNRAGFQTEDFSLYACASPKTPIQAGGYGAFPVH

[3] = biological target: Serine/threonine-protein kinase B-raf (Homo sapiens) (UniProt P15056); experiment: as §1; type: cell-based; conditions: at 1 µM
Chain of Serine/threonine-protein kinase B-raf (Homo sapiens) (P15056 whole entry): as the sequence (P15056 whole entry V600E) above, with E600V counted along it

[4] = biological target: T2, Activin receptor type-1 (Homo sapiens) (UniProt Q04771); experiment: Selectivity interaction (KinomeScan (DiscoverX)) EUB0000655a ACVR1; conditions: at 10 µM
T2 sequence (whole entry): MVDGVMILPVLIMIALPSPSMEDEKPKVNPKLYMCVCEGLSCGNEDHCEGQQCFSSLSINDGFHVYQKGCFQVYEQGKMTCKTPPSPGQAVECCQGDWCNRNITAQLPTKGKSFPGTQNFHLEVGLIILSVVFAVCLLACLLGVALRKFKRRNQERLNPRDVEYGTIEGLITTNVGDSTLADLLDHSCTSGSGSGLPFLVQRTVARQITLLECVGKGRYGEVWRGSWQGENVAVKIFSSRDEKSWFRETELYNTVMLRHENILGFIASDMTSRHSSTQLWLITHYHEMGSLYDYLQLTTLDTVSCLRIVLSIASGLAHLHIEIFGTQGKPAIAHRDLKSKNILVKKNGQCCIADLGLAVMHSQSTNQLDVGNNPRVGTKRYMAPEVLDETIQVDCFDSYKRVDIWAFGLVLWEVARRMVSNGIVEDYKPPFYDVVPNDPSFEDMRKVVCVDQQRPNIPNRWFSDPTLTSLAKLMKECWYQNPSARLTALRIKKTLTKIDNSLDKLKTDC

[5] = biological target: High affinity nerve growth factor receptor (Homo sapiens, UniProt P04629); experiment: Selectivity interaction (Millipore kinase profiler) EUB0000124b NTRK1; conditions: at 10 µM
[6] = tested on: Epidermal growth factor receptor (Homo sapiens), P00533 [UNDEFINED MUTATION]; experiment: Selectivity interaction (KinomeScan (DiscoverX)) EUB0000607a EGFR; conditions: at 10 µM
Chain of Epidermal growth factor receptor (Homo sapiens), P00533 [UNDEFINED MUTATION] (P00533 whole entry, looked up, change not shown): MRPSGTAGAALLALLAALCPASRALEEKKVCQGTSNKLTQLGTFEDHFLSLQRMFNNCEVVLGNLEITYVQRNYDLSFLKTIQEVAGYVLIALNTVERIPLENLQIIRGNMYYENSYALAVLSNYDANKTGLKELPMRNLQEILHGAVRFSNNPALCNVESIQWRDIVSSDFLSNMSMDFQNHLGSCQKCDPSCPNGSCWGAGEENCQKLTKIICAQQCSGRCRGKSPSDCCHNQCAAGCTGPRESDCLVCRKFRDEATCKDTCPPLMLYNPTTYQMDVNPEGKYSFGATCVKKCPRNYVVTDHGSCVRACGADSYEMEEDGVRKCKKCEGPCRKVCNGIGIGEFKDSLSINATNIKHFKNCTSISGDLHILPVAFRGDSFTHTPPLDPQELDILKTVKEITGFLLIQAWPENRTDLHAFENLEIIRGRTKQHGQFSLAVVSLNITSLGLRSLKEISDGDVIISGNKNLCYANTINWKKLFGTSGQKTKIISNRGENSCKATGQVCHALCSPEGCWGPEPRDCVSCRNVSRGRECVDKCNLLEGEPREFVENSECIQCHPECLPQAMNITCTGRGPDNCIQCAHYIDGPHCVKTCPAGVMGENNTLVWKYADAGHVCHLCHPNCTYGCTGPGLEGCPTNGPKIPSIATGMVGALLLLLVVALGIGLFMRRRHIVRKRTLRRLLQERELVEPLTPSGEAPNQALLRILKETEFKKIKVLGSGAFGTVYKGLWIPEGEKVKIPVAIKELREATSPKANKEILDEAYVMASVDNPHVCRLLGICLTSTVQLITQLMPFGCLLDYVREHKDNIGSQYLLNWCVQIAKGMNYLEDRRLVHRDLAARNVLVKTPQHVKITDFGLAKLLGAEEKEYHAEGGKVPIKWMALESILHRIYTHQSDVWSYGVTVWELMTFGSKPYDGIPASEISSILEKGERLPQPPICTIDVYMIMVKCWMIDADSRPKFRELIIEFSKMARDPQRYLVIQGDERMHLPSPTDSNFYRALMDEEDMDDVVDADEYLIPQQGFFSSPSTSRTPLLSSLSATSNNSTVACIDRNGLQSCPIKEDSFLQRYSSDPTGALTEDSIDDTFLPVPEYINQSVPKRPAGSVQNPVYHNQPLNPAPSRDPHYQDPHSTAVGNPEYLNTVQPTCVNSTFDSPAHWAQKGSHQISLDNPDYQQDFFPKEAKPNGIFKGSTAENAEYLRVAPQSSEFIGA

[7] = biological target: 5'-AMP-activated protein kinase catalytic subunit alpha-1 (Homo sapiens, UniProt Q13131); experiment: Selectivity interaction (KinomeScan (DiscoverX)) EUB0001619a PRKAA1; conditions: at 1 µM
Chain of 5'-AMP-activated protein kinase catalytic subunit alpha-1 (Q13131 whole entry, looked up): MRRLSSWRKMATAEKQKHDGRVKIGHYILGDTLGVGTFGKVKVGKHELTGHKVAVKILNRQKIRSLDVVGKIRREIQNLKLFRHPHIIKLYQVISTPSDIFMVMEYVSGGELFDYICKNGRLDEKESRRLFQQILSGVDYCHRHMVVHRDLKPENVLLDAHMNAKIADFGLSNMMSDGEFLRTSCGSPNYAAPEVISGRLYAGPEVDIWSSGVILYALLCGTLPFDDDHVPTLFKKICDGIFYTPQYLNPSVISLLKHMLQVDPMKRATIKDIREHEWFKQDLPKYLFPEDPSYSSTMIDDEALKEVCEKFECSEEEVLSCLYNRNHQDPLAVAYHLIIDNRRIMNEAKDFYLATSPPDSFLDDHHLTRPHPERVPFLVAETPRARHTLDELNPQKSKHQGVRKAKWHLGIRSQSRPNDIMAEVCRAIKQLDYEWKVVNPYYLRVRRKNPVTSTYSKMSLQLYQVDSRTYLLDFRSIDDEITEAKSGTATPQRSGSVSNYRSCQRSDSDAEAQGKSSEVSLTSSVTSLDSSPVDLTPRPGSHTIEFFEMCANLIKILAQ

[8] = biological target: Cyclin-dependent kinase 9 (Homo sapiens, UniProt P50750); conditions: at 10 µM
[9] = biological target: Phosphatidylinositol 4-phosphate 5-kinase type-1 gamma (Homo sapiens) (UniProt O60331); conditions: at 10 µM
[10] = biological target: T3, Dual specificity tyrosine-phosphorylation-regulated kinase 3 (Homo sapiens) (UniProt O43781); experiment: Selectivity interaction (Kinase panel (Invitrogen)) EUB0000639a DYRK3; conditions: at 200 nM
T3 sequence (whole entry): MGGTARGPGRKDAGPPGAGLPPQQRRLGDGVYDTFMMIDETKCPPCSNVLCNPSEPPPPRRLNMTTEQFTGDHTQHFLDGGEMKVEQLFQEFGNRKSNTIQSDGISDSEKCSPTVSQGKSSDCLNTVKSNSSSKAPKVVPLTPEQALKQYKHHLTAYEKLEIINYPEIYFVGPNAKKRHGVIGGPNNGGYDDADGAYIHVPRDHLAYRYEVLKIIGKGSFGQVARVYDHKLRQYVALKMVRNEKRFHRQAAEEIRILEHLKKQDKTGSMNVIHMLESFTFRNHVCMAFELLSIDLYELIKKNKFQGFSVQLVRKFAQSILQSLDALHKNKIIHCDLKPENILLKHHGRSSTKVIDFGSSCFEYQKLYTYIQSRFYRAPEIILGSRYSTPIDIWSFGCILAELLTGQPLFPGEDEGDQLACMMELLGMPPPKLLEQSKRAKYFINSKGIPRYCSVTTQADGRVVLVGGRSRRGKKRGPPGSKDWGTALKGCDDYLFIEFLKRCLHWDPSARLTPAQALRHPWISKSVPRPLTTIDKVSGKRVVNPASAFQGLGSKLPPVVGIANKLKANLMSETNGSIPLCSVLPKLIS

[11] = biological target: Serine/threonine-protein kinase Nek4 (Homo sapiens) (UniProt P51957); experiment: Selectivity interaction (KinomeScan (DiscoverX)) EUB0000229b NEK4; conditions: at 10 µM
Chain of Serine/threonine-protein kinase Nek4 (Homo sapiens) (P51957 whole entry, looked up, the tested form may be a part): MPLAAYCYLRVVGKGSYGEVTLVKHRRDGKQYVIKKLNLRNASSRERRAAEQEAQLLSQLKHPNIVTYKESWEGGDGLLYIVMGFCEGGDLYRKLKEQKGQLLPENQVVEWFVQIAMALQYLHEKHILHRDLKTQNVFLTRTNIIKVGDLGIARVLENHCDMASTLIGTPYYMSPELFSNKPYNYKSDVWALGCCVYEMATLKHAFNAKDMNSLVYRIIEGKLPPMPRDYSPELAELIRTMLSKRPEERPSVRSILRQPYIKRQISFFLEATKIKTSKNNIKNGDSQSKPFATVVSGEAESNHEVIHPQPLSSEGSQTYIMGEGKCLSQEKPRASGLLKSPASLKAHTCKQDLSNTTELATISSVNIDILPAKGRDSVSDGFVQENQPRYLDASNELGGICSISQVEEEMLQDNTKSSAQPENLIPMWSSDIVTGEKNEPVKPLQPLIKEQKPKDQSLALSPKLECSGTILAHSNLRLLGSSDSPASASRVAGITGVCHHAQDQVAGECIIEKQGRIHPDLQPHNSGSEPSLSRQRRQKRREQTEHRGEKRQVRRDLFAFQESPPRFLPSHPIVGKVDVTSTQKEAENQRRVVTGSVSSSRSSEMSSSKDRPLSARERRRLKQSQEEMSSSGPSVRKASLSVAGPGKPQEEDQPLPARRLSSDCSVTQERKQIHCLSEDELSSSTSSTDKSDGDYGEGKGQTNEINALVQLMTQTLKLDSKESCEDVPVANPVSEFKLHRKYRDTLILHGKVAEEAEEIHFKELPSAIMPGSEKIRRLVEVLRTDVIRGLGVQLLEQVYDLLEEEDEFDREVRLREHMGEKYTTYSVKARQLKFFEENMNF

[12] = biological target: LIM domain kinase 1 (Homo sapiens) (UniProt P53667); experiment: Selectivity interaction (KinomeScan (DiscoverX)) EUB0001049a LIMK1; conditions: at 1 µM
Chain of LIM domain kinase 1 (Homo sapiens) (P53667 whole entry, looked up, the tested form may be a part): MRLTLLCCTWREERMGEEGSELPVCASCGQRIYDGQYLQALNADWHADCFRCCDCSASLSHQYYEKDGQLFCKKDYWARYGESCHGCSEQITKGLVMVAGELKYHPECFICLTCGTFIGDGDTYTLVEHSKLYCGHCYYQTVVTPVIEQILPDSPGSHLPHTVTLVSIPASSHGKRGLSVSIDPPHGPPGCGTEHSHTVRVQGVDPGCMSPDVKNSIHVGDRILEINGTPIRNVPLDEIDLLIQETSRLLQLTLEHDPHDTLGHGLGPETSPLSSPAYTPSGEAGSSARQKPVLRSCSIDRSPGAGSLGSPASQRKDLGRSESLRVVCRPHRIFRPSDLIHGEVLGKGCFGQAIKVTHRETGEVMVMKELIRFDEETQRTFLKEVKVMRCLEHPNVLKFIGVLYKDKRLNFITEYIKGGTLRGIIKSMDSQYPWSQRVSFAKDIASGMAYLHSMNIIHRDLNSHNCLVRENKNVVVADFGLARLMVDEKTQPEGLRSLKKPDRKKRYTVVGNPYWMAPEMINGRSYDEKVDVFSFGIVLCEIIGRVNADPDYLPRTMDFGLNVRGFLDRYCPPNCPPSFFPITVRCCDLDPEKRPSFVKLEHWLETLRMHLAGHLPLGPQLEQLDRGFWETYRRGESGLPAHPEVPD

[13] = biological target: Ribosomal protein S6 kinase alpha-4 (Homo sapiens) (UniProt O75676); experiment: Selectivity interaction (Kinase screening (Nanosyn)) EUB0000604a RPS6KA4
Chain of Ribosomal protein S6 kinase alpha-4 (Homo sapiens) (O75676 whole entry, looked up): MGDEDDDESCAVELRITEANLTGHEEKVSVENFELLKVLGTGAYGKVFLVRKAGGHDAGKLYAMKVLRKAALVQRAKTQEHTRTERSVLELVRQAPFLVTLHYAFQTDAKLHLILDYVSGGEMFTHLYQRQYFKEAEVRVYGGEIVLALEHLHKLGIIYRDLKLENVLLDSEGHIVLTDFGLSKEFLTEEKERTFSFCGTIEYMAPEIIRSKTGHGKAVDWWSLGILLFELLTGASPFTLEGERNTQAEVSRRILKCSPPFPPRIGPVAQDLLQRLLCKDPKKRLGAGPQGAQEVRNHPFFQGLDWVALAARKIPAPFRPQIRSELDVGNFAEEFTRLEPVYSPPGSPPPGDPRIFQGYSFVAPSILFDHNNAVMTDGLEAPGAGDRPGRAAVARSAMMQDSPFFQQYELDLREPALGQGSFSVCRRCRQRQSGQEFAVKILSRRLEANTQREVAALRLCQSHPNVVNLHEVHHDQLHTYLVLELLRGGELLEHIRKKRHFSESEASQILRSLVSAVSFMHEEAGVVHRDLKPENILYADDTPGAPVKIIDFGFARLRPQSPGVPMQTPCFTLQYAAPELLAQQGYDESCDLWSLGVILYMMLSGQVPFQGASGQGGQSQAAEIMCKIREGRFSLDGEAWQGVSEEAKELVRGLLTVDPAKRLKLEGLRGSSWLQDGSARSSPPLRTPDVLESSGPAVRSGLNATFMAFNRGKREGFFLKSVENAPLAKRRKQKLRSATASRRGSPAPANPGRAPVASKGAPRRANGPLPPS

SMILES: CN(C)C/C=C/C(=O)Nc1ccc(C(=O)N2CCCC(Nc3ncc(Cl)c(-c4c[nH]c5ccccc45)n3)C2)cc1 (centres undefined)
- % of control [1]: 89%
- % of control (Aurora kinase B): 100%
- % of control [2]: 100%
- % of control [3]: 98%

SMILES: CN(C)CCOc1ccc(-c2nc(-c3ccncc3)c(-c3ccc4c(c3)CC/C4=N\O)[nH]2)cc1
- % of control [4]: 51%

SMILES: CC(=O)Nc1cccc(-n2c(=O)n(C3CC3)c(=O)c3c(Nc4ccc(I)cc4F)n(C)c(=O)c(C)c32)c1
- % of control [5]: 59%

SMILES: CNC(=O)Nc1ccc(-c2nc(N3CC4CCC(C3)O4)c3cnn(C4CCC5(CC4)OCCO5)c3n2)cc1
- % of control [6]: 52%

SMILES: N#Cc1cccc(-c2c[nH]c3ncnc(N4CCOCC4)c23)c1
- % of control [7]: 71%

SMILES: COCC(=O)NC/C=C/c1ccc2ncnc(Nc3ccc(Oc4ccc(C)nc4)c(C)c3)c2c1 [CP-724714]
- % of control [8]: 100%

SMILES: Cc1cc([C@@H](C)Nc2ccccc2C(=O)O)c2nc(N3CCOCC3)cc(=O)n2c1 [AZD-6482]
- % of control [9]: 63%

SMILES: CC[C@@H]1[C@H](F)C(=O)N[C@@H]1COc1nccc2cc(C(N)=O)c(OC)cc12 [ZIMLOVISERTIB]
- % of inhibition [10]: 6.43%

SMILES: COc1cc(N(C)c2ccnc3ccc(C(F)(F)F)cc23)cc(OC)c1OC
- % binding [11]: 82%

SMILES: COc1cc(Nc2nc(C)cc(-c3cnn4nc(OC)ccc34)n2)cc(C(F)(F)F)c1
- % of control [12]: 75%

SMILES: Cc1cnc(Nc2ccc(F)cc2Cl)nc1-c1c[nH]c(C(=O)N[C@H](CO)c2cccc(Cl)c2)c1
- % of inhibition [13]: 6%

— ChEMBL document CHEMBL5465560, “Selectivity Literature for EUbOPEN Chemogenomic Library” (2024)
